{"source": "patent US11318118B1", "about": "“Methods and compositions for treating SARS-CoV-2 infection using carboxyamidotriazole orotate” (TACTICAL THERAPEUTICS INC., priority 2021, dated 2022)", "key": {"[1]": {"test_system": "plasma cytokines", "test": "Luminex (Milliplex MAP Human Cytokine/Chemokine Magnetic Bead Panel) testing of plasma specimens from Phase I cancer patients given CTO", "format": "in vivo", "design": "key to VEGF plasma level / IL-15 plasma level / IL-17A plasma level / IL-1RA plasma level / IL-2 plasma level / IL-4 plasma level / IL-6 plasma level / IL-8 plasma level / IP-10 plasma level / MIP1a plasma level / RANTES plasma level / EGF plasma level / **IL-1β plasma level (second entry of the list) / **TNFα plasma level / GM-CSF plasma level / IFNγ plasma level / IL-1β plasma level (first entry of the list) / IL-12p40 plasma level / IL-12p70 plasma level / IL-13 plasma level: + increased; − decreased", "experimental": "In a Phase I trial of CTO testing the safety and tolerability of CTO in cancer patients, Plasa samples were obtained from three patients after administration of different doses of CTO daily as follows: 1) NSCLC Patient 002-46 (CTO 555 mg/m2), 2) NSCLC Patient 002-50 (CTO 427 mg/m2) and 3) Ovarian Cancer Patient 002-53 (CTO 427 mg/m2) The levels of cytokines were measured by using the HCYTMAG-60K-PX30/Milliplex MAP Human Cytokine/Chemokine Magnetic Bead Panel from Milliplex, USA.\nTable 1. Target Cytokines in Luminex Panel Testing of Plasma Specimens-Results\nExpressed as Cytokine (+ increased) or (− decreased)"}, "[2]": {"test_system": "SARS-CoV-2 infection", "format": "in vivo", "details": "one patient, CTO 600 mg daily oral, on the second day"}, "[3]": {"test_system": "SARS-CoV-2", "format": "cell-based", "details": "Vero E6 cells"}, "[4]": {"test_system": "non-infected Vero E6 cells", "details": "read-out: EC 50 in non-infected Vero E6 cells; cell viability, Cell Titer Glo"}, "[5]": {"details": "CTO 427-555 mg/m2 daily, three cancer patients, versus baseline"}, "[6]": {"details": "CTO doses ranging from 427 mg/m2 to 555 mg/m2"}}, "note": "Where two headings read alike, the source gives them in different places."}
{"smiles": "NC(=O)c1nnn(Cc2cc(Cl)c(C(=O)c3ccc(Cl)cc3)c(Cl)c2)c1N.O=C(O)c1cc(=O)[nH]c(=O)[nH]1", "note": "[CTO]", "values": [{"measurement": "**IL-1β plasma level (second entry of the list)", "setting": "[1]; [5]", "value": "−"}, {"measurement": "**TNFα plasma level", "setting": "[1]; [5]", "value": "−"}, {"measurement": "EGF plasma level", "setting": "[1]; [5]", "value": "+"}, {"measurement": "GM-CSF plasma level", "setting": "[1]; [5]", "value": "−"}, {"measurement": "IFNα2 plasma level", "setting": "[1]; [5]", "value": "—I—"}, {"measurement": "IFNγ plasma level", "setting": "[1]; [5]", "value": "−"}, {"measurement": "IL-1RA plasma level", "setting": "[1]; [5]", "value": "−"}, {"measurement": "IL-1β plasma level (first entry of the list)", "setting": "[1]; [5]", "value": "+"}, {"measurement": "IL-2 plasma level", "setting": "[1]; [5]", "value": "−"}, {"measurement": "IL-4 plasma level", "setting": "[1]; [5]", "value": "−"}, {"measurement": "IL-6 plasma level", "setting": "[1]; [5]", "value": "−"}, {"measurement": "IL-8 plasma level", "setting": "[1]; [5]", "value": "−"}, {"measurement": "IL-12p40 plasma level", "setting": "[1]; [5]", "value": "+"}, {"measurement": "IL-12p70 plasma level", "setting": "[1]; [5]", "value": "−"}, {"measurement": "IL-13 plasma level", "setting": "[1]; [5]", "value": "−"}, {"measurement": "IL-15 plasma level", "setting": "[1]; [5]", "value": "−"}, {"measurement": "IL-17A plasma level", "setting": "[1]; [5]", "value": "−"}, {"measurement": "IP-10 plasma level", "setting": "[1]; [5]", "value": "−"}, {"measurement": "MIP1a plasma level", "setting": "[1]; [5]", "value": "−"}, {"measurement": "RANTES plasma level", "setting": "[1]; [5]", "value": "+"}, {"measurement": "VEGF plasma level", "setting": "[1]; [5]", "value": "−"}, {"measurement": "levels of cytokines including EGF, IFN α2, IL-1β, IL-12p40", "setting": "[1]; [6]", "value": "increase"}, {"measurement": "levels of several cytokines including VEGF, GM-CSF, INF-γ, IL-2, IL-12p70, IL-13, IL-15, IL-17a, IL-1RA, IL-1α, IL-2, ILl-4, IL-6, IL-8, il-10, MIP1-α. IL-1 TNF-α", "setting": "[1]; [6]", "value": "reduction"}, {"measurement": "symptoms of SARS-CoV-2 infection", "setting": "[2]", "value": "great improvement in most of the symptoms"}, {"measurement": "body weight", "setting": "[2]; had lost twelve pounds within 14 days before", "value": "remained at constant weight"}, {"measurement": "IC50", "setting": "[3]; 72 hours post-inoculation, read-out: IC50, CPE assay (highest dose tested)", "value": "> 20", "unit": "µM"}, {"measurement": "replication of SARS-CoV-2", "setting": "[3]; CTO up to 5 μM", "value": "inhibited"}, {"measurement": "IC50", "setting": "[3]; FIG. 2, read-out: IC50, cytopathic effect (CPE) for SARS-CoV-2", "value": "> 20", "unit": "µM"}, {"measurement": "Maximum % Inhibition, CPE for SARS-CoV-2", "setting": "[3]; recorded <20 μM concentration", "value": 29.03, "unit": "%"}, {"measurement": "EC50", "setting": "[4]", "value": 14.9, "unit": "µM"}]}
